Measured values taken from patent US8772274B1, “Anti-cancer compositions and methods” (The Penn State Research Foundation, priority 2008, dated 2014).
Counter-ions that a name gives are not always drawn. Like-named read-outs stand apart in the source and are kept apart here.

What was measured:
[1] = tested on: UACC 903 melanoma cells; test: Cell cycle analysis (propidium iodide, FACScan); type: cell-based; conditions: 3.5 to 21 μM; 24 hours
Method: Cell cycle analysis is undertaken by growing 1.5×10^6 melanoma cells in 100-mm culture dishes followed by treatment with PBIT or PBISe (3.5 to 21 μM) for 24 hours. Cells are collected and stained using propidium iodide (100 μg/mL; Sigma, St Louis, Mo.), 20 μg/mL Ribonuclease A (Roche, Indianapolis, Ind.) 3 μg/mL Triton X-100 dissolved in 0.1% (W/V) sodium citrate for 30 minutes at 4° C. (Krishan, A., J Cell Biol 1975; 66:188-93). Stained cells are analyzed using the FACScan analyzer (Becton Dickinson, San Jose, Calif.) and data processed using ModFit LT software (Verity Software House, Topsham, Me.).

[2] = tested on: UACC 903 melanoma cells; test: Apoptosis, Apo-ONE caspase-3/7 assay; type: cell-based
Method: […] Proliferation and apoptosis rates are measured using a BrdU ELISA kit (Roche Applied Sciences, Indianapolis, Ind.) and Apo-ONE Homogenous caspase-3/7 Assay kit (Promega, Madison, Wis.), respectively, (Madhunapantula S V, et al., Cancer Res 2007; 67:3626-36).

[3] = tested on: 1205Lu melanoma cell line; test: MTS cell viability assay, 1205Lu; type: cell-based; conditions: Homo sapiens; 1205Lu melanoma; 24 hours treatment; MTS; read-out: IC50, 1205Lu (Table I)
Method: Cellular viability compared to control treated cells is measured using the MTS assay (Promega, Madison, Wis.).

[4] = tested on: PI3 kinase signaling in Caco-2 cells; test: Western blot analysis of Caco-2 cell lysates; type: cell-based
Method: For additional Western blot analysis, Caco-2 cell lysates are harvested by addition of lyses buffer containing 50 mM HEPES (pH 7.5), 150 mM NaCl, 10 mM EDTA, 10% glycerol, 1% Triton X-100, 1 mM sodium orthovanadate, 0.1 mM sodium molybdate, 1 mM phenylmethylsulfonyl fluoride, 20 μg/ml aprotinin, and 5 μg/ml leupeptin. Whole cell lysates are centrifuged (≦10,000×g) for 10 minutes at 4° C. to remove cell debris. Protein concentrations are quantitated using the BCA assay (Pierce; Rockford, Ill.), and 30 μg of lysate loaded per lane onto NuPAGE Gels (Life Technologies, Inc. Carlsbad, Calif.). Following electrophoresis, samples are transferred to polyvinylidene difluoride (PVDF) membrane (Pall Corporation, Pensacola, Fla.) and the blots probed with antibodies according to each supplier's recommendations: antibodies to PRAS40 and phosphorylated PRAS40 from Invitrogen (Invitrogen Corporation, Carlsbad, Calif.); antibodies to cyclin D1, p27, p21, and Erk2 from Santa Cruz Biotechnology (Santa Cruz, Calif.); and antibodies to Akt2, phosphorylated-Akt (Ser473), phosphorylated-Erk 1/2 and cleaved PARP from Cell Signaling Technology (Danvers, Mass.). Secondary antibodies conjugated with horseradish peroxidase are obtained from Santa Cruz Biotechnology (Santa Cruz, Calif.). Immunoblots are developed using the enhanced chemiluminescence (ECL) detection system (Pierce Biotechnology, Rockford, Ill.) (FIGS. 6A and 6B).

[5] = tested on: normal human fibroblast FF2441 and UACC 903 cells; test: Sensitivity of melanoma cells compared to normal cells; type: cell-based; conditions: FF2441 vs UACC 903; 2, 4, 6, 12 and 24 hours
Source text: Sensitivity of melanoma cells to PBISe is compared to normal cells. […] Thus, cultured cancer cells are 2-5 fold more sensitive to PBISe than normal cells.

[6] = tested on: HT-29 colorectal adenocarcinoma cells; test: MTS cell viability assay, HT-29; type: cell-based; conditions: Homo sapiens; HT-29; 24-72 hours; MTS; read-out: Inhibition of growth IC50, HT-29 (Table II)
[7] = tested on: A549 lung adenocarcinoma cells; test: MTS cell viability assay, A549; type: cell-based, human
Method: (§2) Growth inhibitory effects on cultured cells from human vertical growth phase (VGP) melanoma cell line WM115, Lung adenocarcinoma (A549), fibrosarcoma (HT-1080), prostate adenocarcinoma (PC-3), ovarian carcinoma (OVCAR-3), and breast adenocarcinoma (MDA-MB-231) are plated in 96 well plates at a density of 5×10^3 cells/well in 100 μl media. […] Dose response curves for each compound are generated and the IC50 values (μM) determined using GraphPad Prism software. Each experiment is replicated at least 3 times and the average IC50 (μM) values with standard error represented.

[8] = tested on: OVCAR-3 ovarian carcinoma cells; test: MTS cell viability assay, OVCAR-3; type: cell-based, human
Method: as §2

[9] = Toxicity of topical application in vivo
Method: Blood collected from the control and experimental animals, at the end of treatment (day 29), are analyzed for SGOT, SGPT (representing liver and cardiac toxicity) and alkaline phosphatase (for kidney and cardiac toxicity). Additionally, concentrations of metabolites (glucose, creatinine, urea nitrogen and total protein) in serum are also determined.

[10] = tested on: colon adenocarcinoma cells (Caco-2, HT 29, HCT 116, SW 480); test: MTS viability, four colon cancer cell lines (summary); type: cell-based
Method: (§3) The IC50 value is evaluated by treating with increasing concentrations of PBIT, PEIT, PEISe (10-100 μM) or PBISe (1.6-50 μM) for 24-72 hours and the number of viable cell are quantified using MTS (Promega, Wis.).

[11] = tested on: UACC 903 melanoma tumors; test: Tumorigenicity assessment, UACC 903 xenograft, i.p. treatment; type: in vivo, nude mice; conditions: day 24; i.p. 0.315 moles (2.5 ppm selenium) Monday, Wednesday, Friday for 3 weeks
Method: (§1) Tumor kinetics are measured by subcutaneous injection of 5×10^6 UACC 903 or 2.5×10^61205 Lu cells in 0.2 ml of DMEM containing 10% FBS above left and right rib cages of 4-6 week old female nude mice (Harlan Sprague Dawley, Indianapolis, Ind.). Six days later, a fully vascularized tumor has developed and mice are randomly placed in control DMSO or experimental (PBIT or PBISe) groups (n=5 animals; 10 tumors total) followed by i.p. treatment with PBIT ([…]) or PBISe ([…]; equivalent to 2.5 ppm selenium per 20 g mouse) on Monday, Wednesday and Friday for 3 weeks. Dimensions of developing tumors and body weight are measured.

[12] = tested on: 1205 Lu melanoma tumors; test: Tumorigenicity assessment, 1205 Lu xenograft, i.p. treatment; type: in vivo, nude mice; conditions: day 24; i.p. 0.315 μmoles (2.5 ppm selenium) Monday, Wednesday, Friday for 3 weeks
Method: as §1

[13] = tested on: Caco-2 colon adenocarcinoma cells; test: MTS cell viability assay, Caco-2
Method: In vitro inhibitory efficacy is measured using 3-(4,5-dimethylthiazol-2-yl)-5-(3-carboxymethoxyphenyl)-2-(4-sulfophenyl)-2H-tetrazolium (MTS) assay (Promega, Madison, Wis.). […] Cells are treated with either vehicle control, PBS, PBIT (40-120 μM) or PBISe (2.4-10 μM) for 72 h. The percentages of viable cells compared to control PBS treated cells are determined using MTS assay and IC50 values calculated using GraphPad Prism version 4.01 (GraphPad software, San Diego, Calif.). An IC50 value for each compound is determined by at least three independent experiments and represented with a standard error.
as §3

[14] = tested on: UACC 903 tumors; test: Apoptosis and proliferation rates in size and time matched tumors; type: in vivo, nude mice; conditions: day 15, i.p. on alternate days
Method: For mechanistic studies, 5×10^6 UACC 903 cells are injected subcutaneously into nude mice generating tumors of the same size developing at parallel time points. 6-days later mice are treated i.p. with DMSO vehicle, PBIT or PBISe (0.315 moles each) on alternate days up to day 15. Size and time matched tumors are harvested at days 9, 11, 13, and 15 to assess changes in cell proliferation and apoptosis. […] Protein concentration is quantitated using Bio-Rad protein assay reagent (Bio-Rad laboratories, Hercules, Calif.) and analyzed by Western blotting.
For caspase-3/7 activity determination, 100 μg of protein lysate is incubated with a Rhodamine-110 conjugated caspase-3/7 substrate (Z-DEVD) for 1-2 hours and fluorescence (485 nm excitation and 520 nm emission) measured in a SPECTRAmax M2 plate reader. […] A minimum of 6 different tumors with 4-6 fields per tumor is analyzed and results represented as the average±SEM. […]

For N=C(N)[Se]CCc1ccc(CC[Se]C(=N)N)cc1 [PBISe, s,s′-1,4-phenylene-bis(1,2-ethanediyl)bis-isoselenourea dihydrobromide], the “increase in G2/M cells” value [1] was ~3 fold, the “sub G0/G1 population” value [1] was “increased” and the caspase-3/7 activity ([2]; UACC 903, increasing concentrations up to 10.5 μM, 24 hours, compared to PBIT) was “elevated”. The “cell death at higher doses” value ([2]; doses higher than 10.5 μM) was > 80%, the IC50 [3] was 9.8 ± 0.7 µM and the “cleaved PARP” value [4] was “increase”. The “downstream pPRAS40 level” value [4] was “decreased”, the “pAkt and Akt2 levels” value [4] was “decreased” and the “fold higher concentrations required to kill fibroblasts compared to melanoma cells” value [5] was 2-5 fold. For the same molecule, the IC50 [6] was 3.84 ± 0.44 µM, the IC50 ([7]; Homo sapiens, A549, 24 h, read-out: Inhibition Cancer Cells IC50, A549 (Table III)) was 4.2 ± 0.58 µM and the “Fold increase in efficacy (PBIT/PBISe), A549” value ([7]; ratio of IC50 PBIT/PBISe, A549) was >23.8 fold. For the same molecule, the IC50 ([8]; Homo sapiens, OVCAR-3, 24 h, read-out: Inhibition Cancer Cells IC50, OVCAR-3 (Table III)) was 5.3 ± 0.65 µM, the “Fold increase in efficacy (PBIT/PBISe), OVCAR-3” value ([8]; ratio of IC50 PBIT/PBISe, OVCAR-3) was >18.9 fold and the “serum enzyme and metabolite levels, topical application” value ([9]; day 29, SGOT, SGPT, alkaline phosphatase, glucose, creatinine, urea nitrogen, total protein) was “no significant differences”. For the same molecule, the “body weight, topical application” value ([9]; topical every day, 29 days) was “no detectable differences”, the “fold more sensitive, colon adenocarcinoma cells than normal cells” value ([10]; colon lines vs FF2441) was 2-7 fold and the IC50 ([10]; read-out: IC50 range, four colon cancer cell lines) was 2.4 to 5.55 µM. For the same molecule, the “difference in tumor volume compared to control DMSO or PBIT, UACC 903” value [11] was ~30%, the “difference in tumor volume compared to control DMSO or PBIT, 1205 Lu” value [12] was ~50% and the “increase in potency compared to PBIT” value ([13]; Caco-2, 72 h, MTS) was 25 fold. The cells killed ([13]; Caco-2, PBISe at 2-4 μM) was > 80%, the “Fold increase in efficacy (PBIT/PBISe), Caco-2” value ([13]; ratio of IC50 PBIT/PBISe, Caco-2) was ~24.7 fold and the IC50 ([13]; read-out: IC50, Caco-2 colon adenocarcinoma cells, Caco-2, 72 h, MTS) was 2400 nM. The IC50 ([13]; read-out: Inhibition Cancer Cells IC50, Caco-2 (Table III), Caco-2 colorectal adenocarcinoma, MTS) was 2400 ± 430 nM, the IC50 ([13]; read-out: Inhibition of growth IC50, Caco-2 (Table II), Caco-2, 24-72 hours, MTS) was 2400 ± 430 nM and the “caspase-3/7 activity in tumors versus PBIT or DMSO vehicle” value [14] was 2 fold.
